Measured values: PubChem BioAssay AID2060355 (Molecular Pharmacology Branch, DTP, NCI, 2025)

System: 485368-065-R4-J2-PDC spheroids with HUVEC/MSC, viability
Assay: Anticancer human tumor 485368-065-R4-J2-PDC patient-derived pancreatic carcinoma cell line growth inhibition [TAK]
Details: for IC50: curve of first compound; for viability, T/C: stronger effect = lower value
Excerpt: Combinatorial screen of targeted agents with TAK-243 and ipatasertib in multi-cell type tumor spheroids
A high-throughput screen of multi-cell type tumor spheroids was designed to identify active combinations of targeted small molecules and TAK-243 or ipatasertib. Complex spheroids include a stromal component modeled by human endothelial cells (HUVEC) and fibroblasts modeled by human mesenchymal stem cells (MSCs). The concentration ranges selected for each drug and investigational agent were based upon clinically achievable concentrations if the clinical Cmax of the agent was known.
Compounds. The drugs and investigational agents: TAK-243 (785004), ipatasertib (767898), everolimus (733504), selumetinib (741078), bortezomib (756655), trametinib (758246), ixazomib (758254), vemurafenib (761431), dabrafenib (764134), sapanisertib (764658), alpelisib (765974), and copanlisib (816437), were obtained from the National Cancer Institute (NCI) Developmental Therapeutics Program Chemical Repository. The FDA-approved anticancer drug set is available from the NCI Developmental Therapeutics Program. […] The stock solutions were prepared in dimethyl sulfoxide (DMSO, Sigma-Aldrich, St. Louis, MO, cat. D2650) at 800-fold the tested concentration and stored at -70 degrees C prior to their use. All drugs and investigational agents were tested over a range starting from a high concentration at or near the clinical Cmax and decreasing in half-log increments. If the clinical Cmax for an agent had not been determined, the highest concentration tested was 10 microM.
NCI60 Cell Culture. NCI60 cell lines were obtained from the NCI Developmental Therapeutics Program Tumor Repository. For each lot of cells, the Repository performed Applied Biosystems AmpFLSTR Identifiler testing with PCR amplification to confirm consistency with the published Identifier STR profile for each cell line. Cells were kept in continuous culture for no more than 20 passages. The optimal seeding densities for each of the cell lines at each time point assessed were determined prior to performing the concentration response studies. Briefly, the NCI60 human tumor lines were grown as monolayers in RPMI 1640 medium supplemented with 10% FBS and 2 mmol/L L-glutamine.
An additional 2 lines were from the NCI60 cell line panel including melanomas, MALME-3M and SK-MEL-2. Pooled donor human umbilical vein endothelial cells (HUVEC, Lonza, cat. CC-2519) and human mesenchymal stem cells (hMSC, Lonza, cat. PT-2501) were purchased from Lonza (Walkersville, MD).
PDMR cell lines were grown in complete medium (DC medium): Dulbecco's modified Eagle's medium (DMEM)/F12 supplemented with 5% fetal bovine serum (FBS), 2 mM L-glutamine, 100 U/mL penicillin and 100 µg/ml streptomycin, 0.4 µg/ml hydrocortisone, 10 ng/ml epidermal growth factor (EGF) recombinant human protein, 24 µg/mL adenine, and 0.1 mg/mL primocin. During culture from frozen stock vials, PDMR cells were cultured in the same medium containing 10 µM Y-27632 (see Table 3). The PDCs were cultured in complete DMEM/F12 media without 10 microM Y-27632 dihydrochloride for at least two passages prior to the screen. The pooled donor HUVEC and hMSC were cultured in endothelial cell growth medium 2 (PromoCell, Heidelberg, Germany, cat. C-22011) and mesenchymal stem cell growth medium 2 (PromoCell, cat. C-28009), respectively. For all experiments, HUVEC and hMSC were used at passages </=5.
For the pre-screen, cell seeding densities were determined from a titration spanning the range from 5,000 to 313 cells per well. The mct-spheroids including 60% malignant cells, 25% HUVEC and 15% MSC dispensed as a mixture into U-bottom Ultra-Low Attachment 384-well plates (Corning, NY)
High-throughput Drug Combination Screening.
Prior to their inoculation into 384-well plates, malignant cells, HUVEC, and hMSC were removed from T flasks using TrypLE express (Thermo Fisher Scientific, cat. 12605036) and harvested by centrifugation for 5 min at 233 x g. […]

[1] = second compound 0.3 µM, first compound 0.0316 µM
[2] = second compound 0.3 µM, first compound 0.1 µM
[3] = second compound 0.949 µM, first compound 0.0316 µM
[4] = second compound 0.949 µM, first compound 0.1 µM
[5] = second compound 3 µM, first compound 0.0316 µM
[6] = second compound 3 µM, first compound 0.1 µM
[7] = second compound 9.49 µM, first compound 0.0316 µM
[8] = second compound 9.49 µM, first compound 0.1 µM
[9] = second compound 30 µM, first compound 0.0316 µM
[10] = second compound 30 µM, first compound 0.1 µM
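Also: spheroids exposed to compounds for seven days before readout.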
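For viability, T/C in this document: 100% = DMSO vehicle control wells.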

Compound: CC(C)(C)c1nc(-c2cccc(NS(=O)(=O)c3c(F)cccc3F)c2F)c(-c2ccnc(N)n2)s1 + CC(C)NCC(C(=O)N1CCN(c2ncnc3c2C(C)CC3O)CC1)c1ccc(Cl)cc1
- IC50 (second compound 0.3 µM): 2660 nM
- IC50 (second compound 0.949 µM): 589 nM
- IC50 (second compound 3 µM): 432 nM
- IC50 (second compound 9.49 µM): 353 nM
- IC50 (second compound 30 µM): 305 nM
- viability, T/C [1]: 104%
- viability, T/C [2]: 92.8%
- viability, T/C (second compound 0.3 µM, first compound 0.316 µM): 71.8%
- viability, T/C (second compound 0.3 µM, first compound 1 µM): 52.9%
- viability, T/C (second compound 0.3 µM, first compound 3.16 µM): 50.4%
- viability, T/C (second compound 0.3 µM, first compound 10 µM): 47.8%
- viability, T/C [3]: 101%
- viability, T/C [4]: 91.3%
- viability, T/C (second compound 0.949 µM, first compound 0.316 µM): 63.4%
- viability, T/C (second compound 0.949 µM, first compound 1 µM): 38.5%
- viability, T/C (second compound 0.949 µM, first compound 3.16 µM): 30.9%
- viability, T/C (second compound 0.949 µM, first compound 10 µM): 28.1%
- viability, T/C [5]: 98.2%
- viability, T/C [6]: 83%
- viability, T/C (second compound 3 µM, first compound 0.316 µM): 57.2%
- viability, T/C (second compound 3 µM, first compound 1 µM): 31.9%
- viability, T/C (second compound 3 µM, first compound 3.16 µM): 21.2%
- viability, T/C (second compound 3 µM, first compound 10 µM): 18%
- viability, T/C [7]: 93.4%
- viability, T/C [8]: 80.2%
- viability, T/C (second compound 9.49 µM, first compound 0.316 µM): 52.5%
- viability, T/C (second compound 9.49 µM, first compound 1 µM): 28.3%
- viability, T/C (second compound 9.49 µM, first compound 3.16 µM): 18.5%
- viability, T/C (second compound 9.49 µM, first compound 10 µM): 17.5%
- viability, T/C [9]: 77.2%
- viability, T/C [10]: 69.9%
- viability, T/C (second compound 30 µM, first compound 0.316 µM): 49.8%
- viability, T/C (second compound 30 µM, first compound 1 µM): 24.8%
- viability, T/C (second compound 30 µM, first compound 3.16 µM): 16.4%
- viability, T/C (second compound 30 µM, first compound 10 µM): 15.3%

Compound: CC(C)CC(NC(=O)CNC(=O)c1cc(Cl)ccc1Cl)B1OC(=O)CC(CC(=O)O)(C(=O)O)O1 (stereo not given) + CC(C)NCC(C(=O)N1CCN(c2ncnc3c2C(C)CC3O)CC1)c1ccc(Cl)cc1
- IC50 (second compound 0.3 µM): 37.7 nM
- IC50 (second compound 0.949 µM): 31.3 nM
- IC50 (second compound 3 µM): 25.6 nM
- IC50 (second compound 9.49 µM): 24.8 nM
- IC50 (second compound 30 µM): 19.7 nM
- viability, T/C (second compound 0.3 µM, first compound 0.000316 µM): 89.7%
- viability, T/C (second compound 0.3 µM, first compound 0.001 µM): 93.9%
- viability, T/C (second compound 0.3 µM, first compound 0.00316 µM): 98.7%
- viability, T/C (second compound 0.3 µM, first compound 0.01 µM): 106%
- viability, T/C [1]: 56.7%
- viability, T/C [2]: 12.8%
- viability, T/C (second compound 0.949 µM, first compound 0.000316 µM): 98.4%
- viability, T/C (second compound 0.949 µM, first compound 0.001 µM): 99%
- viability, T/C (second compound 0.949 µM, first compound 0.00316 µM): 97.5%
- viability, T/C (second compound 0.949 µM, first compound 0.01 µM): 106%
- viability, T/C [3]: 49.6%
- viability, T/C [4]: 12.5%
- viability, T/C (second compound 3 µM, first compound 0.000316 µM): 103%
- viability, T/C (second compound 3 µM, first compound 0.001 µM): 99.6%
- viability, T/C (second compound 3 µM, first compound 0.00316 µM): 99.2%
- viability, T/C (second compound 3 µM, first compound 0.01 µM): 92.6%
- viability, T/C [5]: 40.5%
- viability, T/C [6]: 9.51%
- viability, T/C (second compound 9.49 µM, first compound 0.000316 µM): 94.7%
- viability, T/C (second compound 9.49 µM, first compound 0.001 µM): 87.3%
- viability, T/C (second compound 9.49 µM, first compound 0.00316 µM): 89.5%
- viability, T/C (second compound 9.49 µM, first compound 0.01 µM): 92.6%
- viability, T/C [7]: 39%
- viability, T/C [8]: 9.49%
- viability, T/C (second compound 30 µM, first compound 0.000316 µM): 76.9%
- viability, T/C (second compound 30 µM, first compound 0.001 µM): 80.2%
- viability, T/C (second compound 30 µM, first compound 0.00316 µM): 81%
- viability, T/C (second compound 30 µM, first compound 0.01 µM): 76.7%
- viability, T/C [9]: 31.3%
- viability, T/C [10]: 7.82%
